In patent publication US12247106B2, “Onium-functionalized siloxanes” (Henkel AG & Co. KGaA, priority 2019, dated 2025):

Tests used:
Assay in all cases: Kirby-Bauer Test (Zone of Inhibition), agar diffusion
Format in all cases: cell-based
[1] = system: Aspergillus brasiliensis (ATCC 16404)
Experimental: (§1) Kirby-Bauer Test (Zone of Inhibition):
(§2) The Kirby-Bauer Test is also known as Agar Diffusion Test and can be used for determination of antimicrobial activity in combination with diffusion properties. […] A suspension of the bacterial or fungal strain of interest is spread evenly over the face of a sterile agar plate. The antimicrobial test substrate (preferential liquid aggregation state) is applied to the center of the agar plate onto a small filter paper. The agar plate is incubated for a defined time at a temperature suitable for the test microorganisms. If the test substrate leaches from the filter paper into the agar and it further contains antimicrobial activity, a zone of inhibition is formed around the filter paper.

[2] = system: Exophiala dermatitidis (isolate)
Experimental: as §1, §2

[3] = system: Staphylococcus aureus (ATCC 6538)
Experimental: as §1, §2

[4] = dilution ratio 1:10, maximum 45 mm
[5] = dilution ratio 1:100, maximum 45 mm

| Structure (SMILES) | Zone of Inhibition ([1]; undiluted, maximum 45 mm) | Zone of Inhibition ([2]; undiluted, maximum 45 mm) | Zone of Inhibition ([3]; undiluted, maximum 45 mm) | Zone of Inhibition [1, 4] | Zone of Inhibition [1, 5] | Zone of Inhibition [2, 4] | Zone of Inhibition [2, 5] | Zone of Inhibition [3, 4] | Zone of Inhibition [3, 5] |
| --- | --- | --- | --- | --- | --- | --- | --- | --- | --- |
| CCCCn1ccnc1 [1-Butyl-1H-imidazole] | 5.0 mm | 15.0 mm | 11.0 mm |  |  |  |  |  |  |
| Cn1ccnc1 [1-methyl-1H-imidazole] | 3.5 mm | 12.3 mm | 6.5 mm | 0.0 mm | 0.0 mm | 0.0 mm | 0.0 mm | 0.0 mm | 0.0 mm |
| c1ccncc1 [Pyridine] | 0.0 mm | 1.0 mm | 1.0 mm | 0.0 mm | 0.0 mm | 0.0 mm | 0.0 mm | 0.0 mm | 0.0 mm |
